Experimental data: the supplement of paper PMC10307832

What was measured:
Assay in all cases: relative viability (nuclei count vs DMSO), 5 days (fraction); higher = more cells survive
[1] = compound: C[C@@H](N)c1ccc(C(=O)Nc2ccnc3[nH]ccc23)cc1
Method in brief: (§1)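 Acceptance criteria were a control CV below 25% and at least one doubling per plate. Lung cancer cell lines in 1536-well plates got five library-drug doses (not always all listed) √10 apart by pinning and were left 5 days with no medium change. Viability divides treated-well nuclei by vehicle-well nuclei and is the median across plates. Nuclei were counted by MetaXpress from 4× Hoechst images.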

[2] = compound: C1CNCCC1C2=CC(=NN2)C3=CC=NC=C3
Method in brief: as §1

Tanzisertib = compound: O[C@H]1CC[C@H](Nc2ncc3nc(Nc4c(F)cc(F)cc4F)n([C@H]4CCOC4)c3n2)CC1 [Tanzisertib]
Method in brief: as §1

Cell Line | relative viability ([1]; 0.04 µM) | relative viability ([1]; 0.1265 µM) | relative viability ([1]; 0.4 µM) | relative viability ([1]; 1.265 µM) | relative viability ([1]; 4 µM) | relative viability ([2]; 0.08 µM) | relative viability ([2]; 0.8 µM) | relative viability ([2]; 2.53 µM) | relative viability ([2]; 8 µM) | relative viability (Tanzisertib; 0.08 µM) | relative viability (Tanzisertib; 0.253 µM) | relative viability (Tanzisertib; 0.8 µM) | relative viability (Tanzisertib; 2.53 µM) | relative viability (Tanzisertib; 8 µM)
LCLC-97TM1 | 1.18 | 0.868 | 1.16 | 0.843 | 0.983 | 1.05 | 0.884 | 1.33 | 0.947 | 1.03 | 0.997 | 1.03 | 0.941 | 0.59
LCLC-103H | 1.01 | 0.964 | 0.971 | 0.917 | 0.81 | 1.06 | 0.873 | 0.919 | 0.98 | 1.1 | 1.05 | 1.12 | 1 | 1.04
LK-2 | 1.32 | 0.863 | 1.04 | 0.929 | 1.21 | 0.729 | 1.02 | 1.07 | 1.05 | 1.16 | 1.06 | 1 | 1.03 | 1.03
LOU-NH91 | 0.811 | 0.972 | 0.861 | 0.607 | 0.755 | 1.1 | 1.02 | 1.05 | 0.945 | 0.995 | 0.988 | 0.909 | 0.995 | 0.657
LU99A |  | 0.989 | 0.96 | 0.924 | 0.692 | 0.948 | 1.01 | 1.04 | 0.946 | 1.1 | 1.03 | 1.03 | 1.11 | 0.938
LXF-289 | 1.03 | 1 | 1.03 | 1.05 | 0.902 | 1.04 | 1.05 | 0.991 | 1 | 1.08 | 0.986 | 1.07 | 1.05 | 1.16
NCI-H23 | 0.895 | 0.999 | 1.12 |  | 0.826 | 0.866 | 0.988 | 1.26 | 1.14 | 1.18 | 1.01 | 1.06 | 0.998 | 0.43
NCI-H322M | 1.14 | 1.12 | 1.14 |  | 1.25 | 0.93 | 0.923 | 0.92 | 1.02 | 1.06 | 0.969 | 1.02 | 0.919 | 0.867
NCI-H358 | 0.912 | 0.925 | 0.921 | 0.86 | 0.754 | 0.902 | 0.994 | 1.02 | 0.822 | 1.12 | 0.912 | 0.865 | 0.938 | 0.581
NCI-H441 | 1.05 | 1.15 | 1.31 | 0.906 | 0.827 | 0.908 | 1.12 | 1.06 | 0.912 | 1.09 | 0.888 | 0.93 | 0.887 | 0.891
NCI-H460 | 0.963 | 0.997 | 1.06 | 0.851 | 0.993 | 0.939 | 1.05 | 0.971 | 1.01 | 0.994 | 0.976 | 0.992 | 0.982 | 0.98
NCI-H520 | 1.14 | 1.12 | 0.999 | 1.03 | 1.15 | 0.899 | 0.816 | 0.988 | 1.03 | 1.09 | 0.981 | 1.03 | 0.919 | 0.907
NCI-H522 | 0.935 | 0.865 | 1.11 | 0.875 | 0.805 | 0.819 | 1.05 | 0.983 | 0.98 | 1.11 | 1.01 | 1.02 | 0.956 | 0.702
NCI-H596 | 1.06 | 0.905 | 0.907 | 0.815 | 0.967 | 1.02 | 0.995 | 0.983 | 0.959 | 0.927 | 1.05 | 0.893 | 0.914 | 0.818
NCI-H647 | 0.992 | 0.955 | 0.916 | 0.694 | 0.811 | 1.02 | 0.947 | 1 | 0.868 | 1.21 | 0.976 | 0.973 | 1.12 | 0.779
NCI-H650 |  | 0.849 | 0.932 |  | 0.785 | 0.946 | 0.933 | 1.08 | 0.998 | 0.973 | 1.01 | 0.975 | 1.14 | 0.411
NCI-H661 | 0.907 | 1.02 | 0.974 | 0.891 | 0.87 | 0.993 | 0.964 | 0.96 | 0.988 | 1.01 | 0.997 | 0.964 | 0.944 | 0.964
NCI-H727 | 1.02 | 1.17 | 1.25 | 0.932 | 1.3 | 0.874 | 0.942 | 1.05 | 1.22 | 0.918 | 0.901 | 1.01 | 0.887 | 0.944
NCI-H838 | 0.761 | 0.905 | 0.867 | 0.576 | 0.415 | 0.997 | 0.884 | 1.01 | 0.956 | 0.987 | 0.985 | 0.933 | 0.933 | 0.917
NCI-H1299 | 0.967 | 0.985 | 0.963 | 0.955 | 0.862 | 1.04 | 1.05 | 0.978 | 0.976 | 1.06 | 1.03 | 1.01 | 0.998 | 1.08
NCI-H1355 | 0.961 | 1.01 | 1.12 | 0.909 | 0.986 | 0.955 | 0.957 | 1.08 | 0.977 | 1.08 | 0.978 | 1.09 | 0.96 | 0.911
NCI-H1395 | 0.889 | 0.924 | 0.949 |  | 0.828 | 0.861 | 0.733 | 1.07 | 0.882 | 0.986 | 1 | 0.96 | 1.03 | 0.715
NCI-H1437 | 1.04 | 1.03 | 1.08 | 0.968 | 0.987 | 0.974 | 1.07 | 1 | 0.99 | 1 | 1.06 | 1.04 | 1.02 | 1.04
NCI-H1563 | 0.875 | 1.07 | 0.978 | 0.914 | 1.03 | 0.757 | 0.875 | 0.966 | 1.04 | 1.03 | 1.03 | 0.995 | 0.997 | 0.99
NCI-H1623 | 1.16 | 0.976 | 1.11 | 1.06 | 1.15 | 0.991 | 0.921 | 1.14 | 1.03 | 1.08 | 1.21 | 1.01 | 0.964 | 0.952
